Measurements reported in patent publication US20210244790A1 (priority 2018, published 2021).
Values after ≈ are worked out from the molar mass of the structure shown. Where two headings read alike, the source gives them in different places. Numbered stars: 1 amine (or outer) side, 2 acyl side, 3 side chain; on linkers, the order of the positions; unused ones are H or OH. Bridge positions count the residues as written; N and C are the ends. Square brackets hold non-standard residues; d marks the D form. Peptide text beside a SMILES is read from it. ξ: configuration not given here. ξAsn(3ξ-OH) = NC(=O)C(O)C(N)C(=O)O; X1 = CC(C)CCCC(CC(=O)[*:1])O[*:2]; NMeF = CN[CH](Cc1ccccc1)C(=O)O; NMeV = CN[CH](C(=O)O)C(C)C; Orn = NCCC[CH](N)C(=O)O

Legend:
[1] = tested on: methicillin-resistant Staphylococcus aureus (MRSA) on the skin; assay: Efficacy evaluation test by single dose topical application in murine MRSA skin infection model; format: in vivo, mice; details: preliminary test
[2] = tested on: MRSA; assay: Additional cross MIC test using 5% FBS-added CAMHB, with FIC index; details: concentration of each component in the combination
[3] = tested on: MRSA; assay: microbe, parasite or virus in culture; details: Staphylococcus aureus, read-out: MIC in the presence of 5% FBS, Anti-MRSA activity of 3rd generation
[4] = tested on: clinically isolated MRSA strain; assay: microbe, parasite or virus in culture; details: Staphylococcus aureus, read-out: anti-MRSA activity (MIC) of boric acid alone
[5] = tested on: MRSA; details: CAMHB with 5% FBS
[6] = tested on: MRSA Used in Animal Model; assay: microbe, parasite or virus in culture; details: Staphylococcus aureus
[7] = tested on: Propionibacterium acnes; assay: microbe, parasite or virus in culture; details: Cutibacterium acnes, read-out: antibacterial activity (MIC) of boric acid alone
[8] = tested on: Bacillus anthracis
[9] = tested on: MRSA
[10] = tested on: Propionibacterium acnes; assay: Number of cells after 48 hour anaerobic incubation in 5% FBS-supplemented GAM medium; format: cell-based; details: lotilibcin 0.1 μg/mL alone, initial 2.8 × 10^6
[11] = read-out: Minimum Inhibitory Concentration Against MRSA Used in Animal Model (MIC), CAMHB, no 5% FBS
[12] = read-out: Minimum Inhibitory Concentration Against MRSA Used in Animal Model (MIC), CAMHB, with 5% FBS

Row | SMILES | change in the number of cells (CFUs in skin tissue) ([1]; 1% boric acid alone, single topical dose) | antibacterial efficacy in animal infection models ([1]; boric acid alone 0.1% to 1%) | point of synergy (concentration) in table 7 [2] [µg/mL] | MIC [3] [mg/L] | MIC [4] [mg/L] | minimum concentration of boric acid necessary for enhancing the anti-MRSA activity of lotilibcin [5] [µg/mL] | MIC [6, 11] [mg/L] | MIC [6, 12] [mg/L] | MIC ([6]; read-out: concentration exhibiting antibacterial activity (MIC), used solely, not influenced by presence or absence of serum component (FBS)) [mg/L] | MIC [7] [mg/L] | antibacterial efficacy (change in number of CFUs in skin tissue) ([1]; 0.5% lotilibcin alone, single topical dose) | antibacterial efficacy (change in number of CFUs in skin tissue) ([1]; lotilibcin alone 0.02%, 0.2%, 0.5%, single topical dose, 24 hours) | Antibacterial activity of lotilibcin (MIC) ([8]; No serum) [mg/L] | Antibacterial activity of lotilibcin (MIC) ([8]; With serum (5% FBS)) [mg/L] | MIC in the presence of 5% FBS, Anti-MRSA activity of 1st generation ([9]; 1st generation bacteria) [mg/L] | MIC in the presence of 5% FBS, Anti-MRSA activity of 3rd generation ([9]; 3rd generation bacteria, test substance alone) [mg/L] | Number of cells After 48 hours [10]
1 | OB(O)O [Boric acid] | on the same level as or worse than the result of the negative control | no antibacterial efficacy | 313 | 5000 | 2500 (≈ 40.4 mM) | 100 | 2500 (≈ 40.4 mM) | 2500 (≈ 40.4 mM) | 2500 (≈ 40.4 mM) | 1250 (≈ 20.2 mM) |  |  |  |  |  |  | 
2 | CC(C)CCCC1CC(=O)NC(CO)C(=O)NC(C(O)C(N)=O)C(=O)NC(CO)C(=O)NCC(=O)N(C)C(Cc2ccccc2)C(=O)NC(CC(C)C)C(=O)NC(CCCN)C(=O)NC(CCC(=O)O)C(=O)NC(CC(N)=O)C(=O)NC(Cc2c[nH]c3ccccc23)C(=O)NC(CCCN)C(=O)N(C)C(C(C)C)C(=O)O1 (centres unmarked) [Lotilibcin, lotilibcin] (S[ξAsn(3ξ-OH)]SG[NMeF]L[Orn]ENW[Orn][NMeV]; linker N-C via X1; configuration not given here) |  |  | 0.03 |  |  |  |  |  |  |  | comparable to that of 2% mupirocin | dose-dependent efficacy | 1.0 | 0.1 | 0.25 | 32 | 1.3 × 10^6 CFU/mL
3 | C/C(=C\C(=O)OCCCCCCCCC(=O)O)C[C@@H]1OC[C@H](C[C@@H]2O[C@H]2[C@@H](C)[C@H](C)O)[C@@H](O)[C@H]1O [Mupirocin, mupirocin] |  |  |  |  |  |  | 0.125 (≈ 0.00025 mM) | 0.5 (≈ 0.000999 mM) |  |  |  |  |  |  |  |  | 
